Experimental data taken from US20200370088A1, “KIT AND METHOD FOR ANTIBIOTICS SUSCEPTIBILITY TESTING WITH THE AGAR DILUTION METHOD” ([…].R.L., priority 2019, published 2020).
In brackets after ≈: the same amount, converted by molar mass.

System: test bacteria
Experiment: Agar dilution MIC test in 12-well agarized panel (FIG. 2A-E)
Type: cell-based
Conditions: for MIC: agar dilution test
Experimental: In alternative embodiments, the MIC in agar is determined by the steps of inoculating a suspension of the bacterium to be tested in a plurality of agarized wells with serial two-fold dilutions of antibiotic. The test bacteria are inoculated on the agarized wells. These inoculated wells are incubated at 35-37° C. overnight. The MIC is defined as the minimum antibiotic concentration that yielded complete inhibition of the bacteria on the wells. The steps are illustrated in FIG. 1 and FIGS. 2a-2e.
In alternative embodiments of methods as provided herein different bacterial strains such as Staphylococcus spp., Enterococcus spp., Enterobactariaceae and corresponding mixtures can be inoculated onto the surface of the agarized wells prepared according to Ref. (1) and containing various concentrations of antibiotic. The inoculated wells are incubated at about 35-37° C. for a fixed time, or in alternative embodiment for about 15-24 hours. Depending on the concentration of the antibiotic, bacterial growth results and is clearly visible on the wells. Generally, in the wells having the high concentration of antibiotic, the antibiotic inhibits the bacterial growth while on the wells having low antibiotic concentrations distinctly visible and typical growth is observed. The lowest antibiotic concentration which serves to inhibit the growth of the bacteria on the wells is defined as the minimal inhibitory concentration (MIC).
With particular reference to the FIGS. 2a-2e, the therein illustrated kit is a 12-well panel containing the antibiotic incorporated into an agar medium in different concentrations, i.e. 11 two-fold dilutions (0.25-256 μg/ml). The procedure used to carry out the test is the agar dilution (AD)method for the antimicrobial susceptibility testing of the antibiotic and is according to the one recommended by CLSI and EUCAST (Ref. 1-4) standards but in a simpler and less time-consuming way and with highly reproducible results.
All wells are inoculated with a standardized microbial suspension.
After incubation in thermostat (as described in the following paragraph, for example at 36±2° C. for 16-20 hours in ambient air) the result is read and interpreted.
Test Procedure • Take a panel from its envelope and leave it at room temperature for 10 min. • Prepare a suspension of the test organism using either the direct colony suspension or growth method. • Standardize the suspension to the density of a McFarland 0.5 standard. • Optimally within 15 min of preparation, dilute the adjusted suspension 1:10 in saline. • Dispense 2 μl of the inoculum solution over the agar surface (*) into each well (the final inoculums concentration should be approximately 10^4 CFU per spot). […]
At the end of the incubation period observe the growth in the wells and establish the MIC, i.e. the lowest concentration of antibiotic that inhibits visible growth.
Disregard single colonies or faint haze caused by the inoculum

C[C@@H]1O[C@@H]1P(=O)(O)O [fosfomycin]
MIC (48 h, FIG. 2d): 64 mg/L (≈ 464 µM)
growth observed in well (FIG. 2E, at 1 μg/ml): faint haze
MIC (FIG. 2a): 0.5 mg/L (≈ 3.62 µM)
MIC (FIG. 2b): 16 mg/L (≈ 116 µM)
MIC (FIG. 2c): 2 mg/L (≈ 14.5 µM)
